Assay results: publication PMC8745223, “Novel 1,3,5-Triazinyl Aminobenzenesulfonamides Incorporating Aminoalcohol, Aminochalcone and Aminostilbene Structural Motifs as Potent Anti-VRE Agents, and Carbonic Anhydrases I, II, VII, IX, and XII Inhibitors” (International Journal of Molecular Sciences, 2021)
≈ marks a conversion by molar mass, not a printed value.

Key:
[1] = tested on: T1, Enterococcus faecalis VRE 725 B; assay: organism not typed; set-up: broth microdilution MIC in BHI, Alamar Blue read-out, 37 °C; conditions: 24 h
T1 construct: VRE 725B (vanA clinical isolate)
Method: The inhibition activity against enterococci was evaluated by the microtitration broth method according to the Clinical and Laboratory Standards Institute with some modifications. The compounds were dissolved in DMSO and serially diluted in Brain Hearth Infusion (BHI) to reach concentrations 256–2 µg/mL. […] The experiment was repeated at least three times. All the investigated compounds were tested on their anti-staphylococcal activity against three clinical isolates of methicillin-resistant Staphylococcus aureus (MRSA) and S. aureus ATCC 29213 as the reference and quality control strain. […] All the compounds were tested against Enterococcus faecalis ATCC 29212 as the reference strain and three isolates from American crows of vanA-carrying vancomycin-resistant E. faecalis (VRE), and the activities, expressed as minimum inhibitory concentrations (MICs), are listed in Table 3.

[2] = tested on: T2, Enterococcus faecalis VRE 368; assay: organism not typed; set-up: broth microdilution MIC in BHI, Alamar Blue read-out, 37 °C; conditions: 24 h
T2 construct: VRE 368 (vanA clinical isolate)
Method: (§1) The inhibition activity against enterococci was evaluated by the microtitration broth method according to the Clinical and Laboratory Standards Institute with some modifications. The compounds were dissolved in DMSO and serially diluted in Brain Hearth Infusion (BHI) to reach concentrations 256–2 µg/mL. […] The experiment was repeated at least three times. All the investigated compounds were tested on their anti-staphylococcal activity against three clinical isolates of methicillin-resistant Staphylococcus aureus (MRSA) and S. aureus ATCC 29213 as the reference and quality control strain.

[3] = tested on: T3, Enterococcus faecalis VRE 342 B; assay: organism not typed; set-up: broth microdilution MIC in BHI, Alamar Blue read-out, 37 °C; conditions: 24 h
T3 construct: VRE 342 B (vanA clinical isolate)
Method: as §1

[4] = tested on: T4, E. faecalis ATCC 29212 (EF); assay: microbe, parasite or virus in culture; set-up: broth microdilution MIC in BHI, Alamar Blue read-out, 37 °C; conditions: Enterococcus faecalis, ATCC29212, 24 h
T4 construct: ATCC 29212
Method: as §1

hCA IX = molecular target: T5, hCA IX (Homo sapiens, UniProt Q16790); assay: stopped-flow CO2 hydration assay; assay type: biochemical
T5 construct: gene CA9; recombinant
How it was run: (§2)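 Recombinant human carbonic anhydrase CO2 hydration was followed by stopped-flow for 10–100 s with 0.2 mM phenol red (557 nm), 20 mM Hepes pH 7.5, 20 mM Na2SO4 and 1.7–17 mM CO2. Enzyme and inhibitor (diluted to 0.005 nM in buffer) were preincubated 15 min at room temperature. Initial rates used at least six traces, with uncatalysed rates subtracted. Ki was fitted by non-linear least squares with Cheng–Prusoff equation, averaged over three or more determinations.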

hCA VII = molecular target: T6, hCA VII (Homo sapiens, UniProt P43166); assay: stopped-flow CO2 hydration assay; assay type: biochemical
T6 construct: gene CA7; recombinant
How it was run: as §2

hCA II = molecular target: T7, hCA II (Homo sapiens, UniProt P00918); assay: stopped-flow CO2 hydration assay; assay type: biochemical
T7 construct: gene CA2; recombinant
How it was run: as §2

hCA I = molecular target: T8, hCA I (Homo sapiens, UniProt P00915); assay: stopped-flow CO2 hydration assay; assay type: biochemical
T8 construct: gene CA1; recombinant
How it was run: as §2

hCA XII = molecular target: T9, hCA XII (Homo sapiens, UniProt O43570); assay: stopped-flow CO2 hydration assay; assay type: biochemical
T9 construct: gene CA12; recombinant
How it was run: as §2

T9 sequence (O43570 25-354): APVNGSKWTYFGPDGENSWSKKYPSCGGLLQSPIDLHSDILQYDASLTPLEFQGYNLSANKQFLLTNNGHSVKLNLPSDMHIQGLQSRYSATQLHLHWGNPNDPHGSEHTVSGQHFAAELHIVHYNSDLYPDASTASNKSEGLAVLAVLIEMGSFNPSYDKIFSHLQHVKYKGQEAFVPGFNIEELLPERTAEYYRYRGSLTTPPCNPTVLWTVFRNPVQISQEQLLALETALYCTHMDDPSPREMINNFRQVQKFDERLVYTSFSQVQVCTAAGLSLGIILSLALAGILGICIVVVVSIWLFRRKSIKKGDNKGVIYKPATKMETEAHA
T6 sequence (P43166 whole entry): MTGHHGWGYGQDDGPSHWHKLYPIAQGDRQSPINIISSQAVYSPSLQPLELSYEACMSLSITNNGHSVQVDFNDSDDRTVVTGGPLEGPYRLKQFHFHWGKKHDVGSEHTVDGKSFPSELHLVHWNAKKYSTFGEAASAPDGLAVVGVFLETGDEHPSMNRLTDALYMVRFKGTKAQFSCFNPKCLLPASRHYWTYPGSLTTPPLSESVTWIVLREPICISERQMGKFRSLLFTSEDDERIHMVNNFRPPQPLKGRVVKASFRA
T8 sequence (P00915 2-261): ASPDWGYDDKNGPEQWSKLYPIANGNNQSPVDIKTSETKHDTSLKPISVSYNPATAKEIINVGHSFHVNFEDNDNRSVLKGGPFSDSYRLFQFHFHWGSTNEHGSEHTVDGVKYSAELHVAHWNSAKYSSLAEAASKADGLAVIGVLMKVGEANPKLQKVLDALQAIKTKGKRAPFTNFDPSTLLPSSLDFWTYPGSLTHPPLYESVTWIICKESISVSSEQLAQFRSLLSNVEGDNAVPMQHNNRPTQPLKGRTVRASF

Compound | MIC [1] | MIC [2] | MIC [3] | MIC [4] | MIC [µM] / VRE 725 B ([1]; inhibitor) | Ki (hCA IX) | Ki (hCA VII) | Ki (hCA II) | Ki (hCA I) | Ki (hCA XII)
NS(=O)(=O)c1ccc(CNc2nc(Cl)nc(NCc3ccc(S(N)(=O)=O)cc3)n2)cc1 [7 ^a] | 131 µM (≈ 63.4 µg/mL) | 33 µM (≈ 16 µg/mL) | 66 µM (≈ 31.9 µg/mL) | 16.5 µM (≈ 7.98 µg/mL) | – | – | – | – | – | –
CC1(C)S[C@@H]2[C@H](NC(=O)[C@H](N)c3ccccc3)C(=O)N2[C@H]1C(=O)O [ampicillin] | – | – | – | – | 5.72 µM (≈ 2 µg/mL) | – | – | – | – | –
NS(=O)(=O)c1ccc(Nc2nc(Cl)nc(NCCCO)n2)cc1 [compound 1, 1] | – | – | – | – | – | 229 nM | 128 nM | 44.8 nM | 26.8 nM | –
NS(=O)(=O)c1ccc(Nc2nc(NCCCO)nc(Nc3ccc(/C=C/c4cccc(O)c4)cc3)n2)cc1 [compound 4, (E)-4-({4-[(3-Hydroxypropyl)amino]-6-{[4-(3-hydroxystyryl)phenyl]amino}-1,3,5-triazin-2-yl}amino)benzenesulfonamide] | – | – | – | – | – | 27.5 nM | – | 3640 nM | 7520 nM | 65.8 nM
NS(=O)(=O)c1ccc(CNc2nc(Cl)nc(NCCCO)n2)cc1 [compound 5, 5] | – | – | – | – | – | – | 332 nM | – | – | –
NS(=O)(=O)c1ccc(CNc2nc(NCCCO)nc(Nc3ccc(/C=C/c4cccc(O)c4)cc3)n2)cc1 [compound 17, 17] | > 467 µM | 467 µM (≈ 256 µg/mL) | > 467 µM | > 467 µM | – | 22.2 nM | – | 46.8 nM | 358 nM | 493 nM
NS(=O)(=O)c1ccc(CCNc2nc(Cl)nc(NCCCO)n2)cc1 [compound 18, 18] | 661 µM (≈ 256 µg/mL) | 661 µM (≈ 256 µg/mL) | 330 µM (≈ 128 µg/mL) | 330 µM (≈ 128 µg/mL) | – | – | 75.7 nM | – | – | –
NS(=O)(=O)c1ccc(CCNc2nc(Cl)nc(NCC(O)CO)n2)cc1 (centres unmarked) [compound 19, 19] | > 635 µM | > 635 µM | > 635 µM | > 635 µM | – | – | 40.7 nM | – | – | –
NS(=O)(=O)c1ccc(CCNc2nc(NCCCO)nc(Nc3ccc(/C=C/c4ccccc4)cc3)n2)cc1 [compound 30, (E)-4-[2-({4-[(3-Hydroxypropyl)amino]-6-[(4-styrylphenyl)amino]-1,3,5-triazin-2-yl}amino)ethyl]benzenesulfonamide] | > 469 µM | > 469 µM | > 469 µM | > 469 µM | – | 12.1 nM | – | 5130 nM | 5700 nM | 7.6 nM
NS(=O)(=O)c1ccc(CCNc2nc(NCC(O)CO)nc(Nc3ccc(/C=C/c4ccccc4)cc3)n2)cc1 (centres unmarked) [compound 31, (E)-4-{2-[(4-[(2,3-Dihydroxypropyl)amino]-6-[(4-styrylphenyl)amino]-1,3,5-triazin-2-yl)amino]ethyl}benzenesulfonamide] | > 455 µM | > 455 µM | > 455 µM | > 455 µM | – | 248 nM | – | 335 nM | 36.9 nM | 4.4 nM
NS(=O)(=O)c1ccc(CCNc2nc(Nc3ccc(O)cc3)nc(Nc3ccc(/C=C/c4ccccc4)cc3)n2)cc1 [compound 32, (E)-4-{2-[(4-[(4-Hydroxyphenyl)amino]-6-[(4-styrylphenyl)amino]-1,3,5-triazin-2-yl)amino]ethyl}benzenesulfonamide] | 55.2 µM (≈ 32 µg/mL) | 27.6 µM (≈ 16 µg/mL) | 27.6 µM (≈ 16 µg/mL) | 13.8 µM (≈ 8 µg/mL) | – | 2470 nM | – | 7490 nM | 90.6 nM | 5.9 nM
NS(=O)(=O)c1ccc(CCNc2nc(NCc3ccc(S(N)(=O)=O)cc3)nc(Nc3ccc(/C=C/c4ccccc4)cc3)n2)cc1 [compound 33] | 194 µM (≈ 127 µg/mL) | 389 µM (≈ 255 µg/mL) | 194 µM (≈ 127 µg/mL) | 97.4 µM (≈ 64 µg/mL) | – | 1970 nM | – | 57.9 nM | 48 nM | 6.2 nM
NS(=O)(=O)c1ccc(CCNc2nc(NCC(O)CO)nc(Nc3ccc(/C=C/c4ccccc4O)cc3)n2)cc1 (centres unmarked) [compound 34, (E)-4-{2-[(4-[(2,3-Dihydroxypropyl)amino]-6-{[4-(2-hydroxystyryl)phenyl]amino}-1,3,5-triazin-2-yl)amino]ethyl}benzenesulfonamide] | > 443 µM | > 443 µM | > 443 µM | > 443 µM | – | 2710 nM | – | 5630 nM | 1670 nM | 8.5 nM
NS(=O)(=O)c1ccc(CCNc2nc(Nc3ccc(O)cc3)nc(Nc3ccc(/C=C/c4ccccc4O)cc3)n2)cc1 [compound 35, 35] | > 429 µM | > 429 µM | > 429 µM | > 429 µM | – | 238 nM | – | 5470 nM | 3940 nM | 37.1 nM
NS(=O)(=O)c1ccc(CCNc2nc(NCc3ccc(S(N)(=O)=O)cc3)nc(Nc3ccc(/C=C/c4ccccc4O)cc3)n2)cc1 [compound 36, (E)-4-{2-[(4-{[4-(2-Hydroxystyryl)phenyl]amino}-6-[(4-sulfamoylbenzyl)amino]-1,3,5-triazin-2-yl)amino]ethyl}benzenesulfonamide] | > 380 µM | > 380 µM | > 380 µM | > 380 µM | – | 2720 nM | – | 82 nM | 448 nM | 8.3 nM
NS(=O)(=O)c1ccc(CCNc2nc(NCCCO)nc(Nc3ccc(/C=C/c4cccc(O)c4)cc3)n2)cc1 [compound 37, 37] | > 455 µM | > 455 µM | > 455 µM | > 455 µM | – | 26.4 nM | – | 73.5 nM | 675 nM | 601 nM
NS(=O)(=O)c1ccc(CCNc2nc(NCC(O)CO)nc(Nc3ccc(/C=C/c4cccc(O)c4)cc3)n2)cc1 (centres unmarked) [compound 38, (E)-4-{2-[(4-[(2,3-Dihydroxypropyl)amino]-6-{[4-(3-hydroxystyryl)phenyl]amino}-1,3,5-triazin-2-yl)amino]ethyl}benzenesulfonamide] | > 443 µM | > 443 µM | > 443 µM | > 443 µM | – | 17.3 nM | – | 4440 nM | 6730 nM | 84.5 nM
NS(=O)(=O)c1ccc(CCNc2nc(Nc3ccc(O)cc3)nc(Nc3ccc(/C=C/c4cccc(O)c4)cc3)n2)cc1 [compound 39, 39] | > 429 µM | > 429 µM | > 429 µM | > 429 µM | – | 876 nM | – | 154 nM | 742 nM | 68.5 nM
NS(=O)(=O)c1ccc(CCNc2nc(NCc3ccc(S(N)(=O)=O)cc3)nc(Nc3ccc(/C=C/c4cccc(O)c4)cc3)n2)cc1 [compound 40, (E)-4-{2-[(4-{[4-(3-Hydroxystyryl)phenyl]amino}-6-[(4-sulfamoylbenzyl)amino]-1,3,5-triazin-2-yl)amino]ethyl}benzenesulfonamide] | 190 µM (≈ 128 µg/mL) | 380 µM (≈ 256 µg/mL) | 190 µM (≈ 128 µg/mL) | 190 µM (≈ 128 µg/mL) | – | 20.3 nM | – | 18.9 nM | 48.8 nM | 60.5 nM
NS(=O)(=O)c1ccc(CCNc2nc(NCC(O)CO)nc(Nc3ccc(/C=C/c4ccc(O)cc4)cc3)n2)cc1 (centres unmarked) [compound 42, (E)-4-{2-[(4-[(2,3-Dihydroxypropyl)amino]-6-{[4-(4-hydroxystyryl)phenyl]amino}-1,3,5-triazin-2-yl)amino]ethyl}benzenesulfonamide] | 221 µM (≈ 128 µg/mL) | 221 µM (≈ 128 µg/mL) | 110 µM (≈ 63.5 µg/mL) | 55.4 µM (≈ 32 µg/mL) | – | 258 nM | – | 96.3 nM | 43.5 nM | 9.7 nM
CN[C@H](CC(C)C)C(=O)N[C@H]1C(=O)N[C@@H](CC(N)=O)C(=O)N[C@H]2C(=O)N[C@H]3C(=O)N[C@H](C(=O)N[C@H](C(=O)O)c4cc(O)cc(O)c4-c4cc3ccc4O)[C@H](O)c3ccc(c(Cl)c3)Oc3cc2cc(c3O[C@@H]2O[C@H](CO)[C@@H](O)[C@H](O)[C@H]2O[C@H]2C[C@](C)(N)[C@H](O)[C@H](C)O2)Oc2ccc(cc2Cl)[C@H]1O [vancomycin] | 706 µM (≈ 1020 µg/mL) | 353 µM (≈ 512 µg/mL) | 353 µM (≈ 512 µg/mL) | – | – | – | – | – | – | –
